# Assay results: patent publication US10131675B2 (Genentech, Inc., priority 2015, dated 2018)
# Biological target: DLK (Homo sapiens (Human), UniProt Q12852)
# Assay: DLK TR-FRET Inhibition Assay
# Assay type: biochemical
# Conditions: N-terminally GST-tagged DLK (catalytic domain amino acid 1-520), MKK4 K131M substrate, 30 μM ATP; read-out: DLK HTRF Ki
# Experimental: DLK kinase reactions (20 μL) containing 5 nM N-terminally GST-tagged DLK (catalytic domain amino acid 1-520) (Carna Bioscience), 40 nM N-terminally HIS tagged MKK4 K131M substrate, and 30 μM ATP in kinase reaction buffer (50 mM HEPES, pH 7.5, 0.01% Triton X-100, 0.01% Bovine γ-Globulins, 2 mM DTT, 10 mM MgCl2 and 1 mM EGTA), and testing compound 1:3 serial diluted starting at 20 uM were incubated at ambient temperature for 60 minutes in 384 well OptiPlate (Perkin Elmer). To quench kinase reactions and detect phosphorylated MKK4, 15 μL of TR-FRET antibody mixture containing 2 nM anti-phosphorylated MKK4 labeled with Europium cryptate (Cisbio) and 23 nM anti-HIS labeled with D2 (Cisbio) in detection buffer (25 mM Tris pH 7.5, 100 mM NaCl, 100 mM EDTA, 0.01% Tween-20, and 200 mM KF) was added to the reaction mixture. The detection mixture was incubated for 3 hours at ambient temperature and the TR-FRET was detected with an EnVision multilabel plate reader (Perkin-Elmer) using the LANCE/DELFIA Dual Enh label from Perkin-Elmer (excitation filter: UV2 (TRF) 320 and emission filters: APC 665 and Europium 615).
# DLK, sequence (Q12852 1-520): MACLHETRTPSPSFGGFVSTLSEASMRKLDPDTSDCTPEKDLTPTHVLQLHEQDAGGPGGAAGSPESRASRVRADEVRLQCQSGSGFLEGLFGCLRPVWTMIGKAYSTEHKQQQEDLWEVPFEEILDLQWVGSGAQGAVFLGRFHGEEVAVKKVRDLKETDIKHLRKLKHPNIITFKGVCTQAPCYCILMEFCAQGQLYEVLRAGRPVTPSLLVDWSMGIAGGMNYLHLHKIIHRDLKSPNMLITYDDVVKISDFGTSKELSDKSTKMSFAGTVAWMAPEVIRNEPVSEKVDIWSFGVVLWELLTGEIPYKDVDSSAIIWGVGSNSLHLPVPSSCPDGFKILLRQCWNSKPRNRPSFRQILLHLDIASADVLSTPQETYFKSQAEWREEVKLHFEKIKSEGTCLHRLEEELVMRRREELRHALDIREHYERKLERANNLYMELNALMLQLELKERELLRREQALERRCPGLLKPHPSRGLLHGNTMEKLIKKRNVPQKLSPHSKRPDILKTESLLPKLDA
row,SMILES,Ki [nM]
1,"CC1(C)OCCn2c1nc1c(C3CC3)nc(-c3cnc(N)c(OC(F)F)c3)nc12 [Example 119, 5-(4-cyclopropyl-6,6-dimethyl-8,9-dihydro-6H-[1,4]oxazino[4,3-e]purin-2-yl)-3-(difluoromethoxy)pyridin-2-amine]",34.3
2,"C[C@@H]1Cn2c(nc3c(N4CC5CC4C5)nc(-c4cnc(N)nc4)nc32)C(C)(C)O1 (single isomer, unassigned) [Example 138]",82.5
3,CC1(C)OCCn2c1nc1c(C3CC3)nc(-c3cnc(N)nc3)nc12 [Example 122],307
4,Cc1c[nH]c2ncc(-c3nc(N4CCC(F)(F)C4)c4nc5n(c4n3)CCOC5(C)C)cc12 [Example 74],25.9
5,"C[C@H]1Cn2c(nc3c(N4CC5CC4C5)nc(-c4cnc(N)nc4)nc32)C(C)(C)O1 (single isomer, unassigned) [Example 139]",149
6,CC1(C)OCCn2c1nc1c(N3CC4CC3C4)nc(-c3cnc(N)c(C#N)c3)cc12 [Example 144],2.23
7,"CC1(C)OCCn2c1nc1c(C3CC3)nc(-c3cnc(N)c4nc[nH]c34)nc12 [Example 127, 7-(4-cyclopropyl-6,6-dimethyl-8,9-dihydro-6H-[1,4]oxazino[4,3-e]purin-2-yl)-1H-imidazo[4,5-c]pyridin-4-amine]",150
8,"CC1(C)OCCn2c1nc1c(N3CCC4CC43)nc(-c3cnc(N)nc3)nc12 (stereo not drawn) [Example 7, 5-[1-(2-Aza-bicyclo[3.1.0]hex-2-yl)-8,8-dimethyl-5,6-dihydro-8H-7-oxa-2,4,4b,9-tetraaza-fluoren-3-yl]-pyrimidin-2-ylamine]",199
9,"CC1(C)OCCn2c1nc1c(N3CCC4(COC4)C3)nc(-c3cnc(N)nc3)nc12 [Example 8, 5-[8,8-Dimethyl-1-(2-oxa-6-aza-spiro[3.4]oct-6-yl)-5,6-hydro-8H-7-oxa-2,4,4b,9-tetraaza-fluoren-3-yl]-pyrimidin-2-ylamine]",469
10,C[C@H]1Cn2c(nc3c(N4CC5CC4C5)nc(-c4cnc(N)nc4)nc32)[C@@H](C)O1 [Example 151],120
11,"CO[C@@H]1CC2CC1CN2c1nc(-c2cnc(N)nc2)nc2c1nc1n2CCOC1(C)C (single isomer, unassigned) [Example 140]",72.7
12,"CC1(C)OCCn2c1nc1c(N3CC4CC3C4)nc(-c3cnc(N)nc3)nc12 [Example 46, 5-[1-(2-Aza-bicyclo[2.1.1]hex-2-yl)-8,8-dimethyl-5,6-dihydro-8H-7-oxa-2,4,4b,9-tetraaza-fluoren-3-yl]-pyrimidin-2-ylamine]",130
13,"CC1(C)OCCn2c1nc1c(N3CCCC34CCOC4)nc(-c3cnc(N)nc3)nc12 (stereo not drawn) [Example 16, 5-[8,8-Dimethyl-1-(7-oxa-1-aza-spiro[4.4]non-1-yl)-5,6-dihydro-8H-7-oxa-2,4,4b,9-tetraaza-fluoren-3-yl]-pyrimidin-2-ylamine]",320
14,"CC1(C)OCCn2c1nc1c(N3CCC4(COC4)C3)nc(-c3cnc(N)c(C(F)(F)F)c3)nc12 [Example 49, 5-[8,8-Dimethyl-1-(2-oxa-6-aza-spiro[3.4]oct-6-yl)-5,6-dihydro-8H-7-oxa-2,4,4b,9-tetraaza-fluoren-3-yl]-3-trifluoromethyl-pyridin-2-ylamine]",270
15,"C[C@]1(C2CC2)OCCn2c1nc1c(C3CC3)nc(-c3cnc(N)nc3)nc12 (single isomer, unassigned) [Example 105]",211
16,COC1CN(c2nc(-c3cnc4[nH]cc(C(F)(F)F)c4c3)nc3c2nc2n3CCCOC2)C1 [Example 145],6.49
17,CC1(C)OCCn2c1nc1c(C3CC3)nc(-c3cnc(N)c(OC(F)F)c3)cc12 [Example 148],56.9
18,CCC(C)Oc1cc(-c2nc(N3CCC(F)(F)C3)c3nc4n(c3n2)CCOC4(C)C)cnc1N (stereo not drawn) [Example 80],443
19,"CC(C)N(c1nc(-c2cnc(N)nc2)nc2c1nc1n2CCOC1(C)C)C1CC1 [Example 63, 2-(2-aminopyrimidin-5-yl)-N-cyclopropyl-N-isopropyl-6,6-dimethyl-8,9-dihydro-6H-[1,4]oxazino[4,3-e]purin-4-amine]",558
20,CCOc1cc(-c2nc(N3CCC(F)(F)C3)c3nc4n(c3n2)CCOC4(C)C)cnc1N [Example 78],558

row,SMILES,Ki [nM]
1,"CCN(c1nc(-c2cnc(N)nc2)nc2c1nc1n2CCOC1(C)C)C1CCC1 [Example 62, 2-(2-aminopyrimidin-5-yl)-N-cyclobutyl-N-ethyl-6,6-dimethyl-8,9-dihydro-6H-[1,4]oxazino[4,3-e]purin-4-amine]",86.7
2,"CC1(C)OCCn2c1nc1c(N3CC4CC3C4)nc(-c3cnc4ccnn4c3)nc12 [Example 38, 1-(2-Aza-bicyclo[2.1.1]hex-2-yl)-8,8-dimethyl-3-pyrazolo[1,5-a]pyrimidin-6-yl-5,6-dihydro-8H-7-oxa-2,4,4b,9-tetraaza-fluorene]",280
3,"CC1(C)OCCn2c1nc1c(N3CC4(CCC4)C3)nc(-c3cnc(N)nc3)nc12 [Example 52, 5-[1-(2-Aza-spiro[3.3]hept-2-yl)-8,8-dimethyl-5,6-dihydro-8H-7-oxa-2,4,4b,9-tetraaza-fluoren-3-yl]-pyrimidin-2-ylamine]",515
4,"CC1(C(F)(F)F)OCCn2c1nc1c(N3CC4CC3C4)nc(-c3cnc(N)nc3)nc12 (stereo not drawn) [Example 100, 5-(4-(2-azabicyclo[2.1.1]hexan-2-yl)-6-methyl-6-(trifluoromethyl)-8,9-dihydro-6H-[1,4]oxazino[4,3-e]purin-2-yl)pyrimidin-2-amine]",225
5,"CCc1n[nH]c2ncc(-c3nc(N4CC5CC4C5)c4nc5n(c4n3)CCOC5(C)C)cc12 [Example 20, 1-(2-Aza-bicyclo[2.1.1]hex-2-yl)-3-(3-ethyl-1H-pyrazolo[3,4-b]pyridin-5-yl)-8,8-dimethyl-5,6-dihydro-8H-7-oxa-2,4,4b,9-tetraaza-fluorene]",161
6,"Cc1c[nH]c2ncc(-c3nc(N4CC(O)C4)c4nc5n(c4n3)CCOC5(C)C)cc12 [Example 32, 1-[8,8-Dimethyl-3-(3-methyl-1H-pyrrolo[2,3-b]pyridin-5-yl)-5,6-dihydro-8H-7-oxa-2,4,4b,9-tetraaza-fluoren-1-yl]-azetidin-3-ol]",13.1
7,"CC1(C)OCCn2c1nc1c(C3(C#N)CCC3)nc(-c3cnc(N)nc3)nc12 [Example 103, 1-(2-(2-aminopyrimidin-5-yl)-6,6-dimethyl-8,9-dihydro-6H-[1,4]oxazino[4,3-e]purin-4-yl)cyclobutanecarbonitrile]",1000
8,CC(C)Oc1cc(-c2nc(N3CCC(F)(F)C3)c3nc4n(c3n2)CCOC4(C)C)cnc1N [Example 79],269
9,"CC1(C)OCCn2c1nc1c(N3CC4CCOC4C3)nc(-c3cnc(N)nc3)nc12 (stereo not drawn) [Example 14, 5-[1-(Hexahydro-furo[2,3-c]pyrrol-5-yl)-8,8-dimethyl-5,6-dihydro-8H-7-oxa-2,4,4b,9-tetraaza-fluoren-3-yl]-pyrimidin-2-ylamine]",990
10,"Nc1ncc(-c2nc(N3CC4CC3C4)c3nc4n(c3n2)CCCOC4)cc1OC(F)F [Example 135, 5-(4-(2-azabicyclo[2.1.1]hexan-2-yl)-6,8,9,10-tetrahydro-[1,4]oxazepino[4,3-e]purin-2-yl)-3-(difluoromethoxy)pyridin-2-amine]",30.8
11,"Cc1c[nH]c2ncc(-c3nc(N4CCC5(COC5)C4)c4nc5n(c4n3)CCOC5(C)C)cc12 [Example 30, 8,8-Dimethyl-3-(3-methyl-1H-pyrrolo[2,3-b]pyridin-5-yl)-1-(2-oxa-6-aza-spiro[3.4]oct-6-yl)-5,6-dihydro-8H-7-oxa-2,4,4b,9-tetraaza-fluorene]",10.2
12,"CN(C)c1nc(-c2cnc3[nH]cc(C#N)c3c2)nc2c1nc1n2CCCOC1 [Example 128, 5-(4-(dimethylamino)-6,8,9,10-tetrahydro-[1,4]oxazepino[4,3-e]purin-2-yl)-1H-pyrrolo[2,3-b]pyridine-3-carbonitrile]",17.9
13,"CCN(c1nc(-c2cnc(N)nc2)nc2c1nc1n2CCOC1(C)C)C1CC1 [Example 61, 2-(2-aminopyrimidin-5-yl)-N-cyclopropyl-N-ethyl-6,6-dimethyl-8,9-dihydro-6H-[1,4]oxazino[4,3-e]purin-4-amine]",250
14,"Nc1ncc(-c2nc(N3CC4CC3C4)c3nc4n(c3n2)CCO[C@H]4C(F)(F)F)cn1 (single isomer, unassigned) [Example 98]",93.8
15,"Nc1ncc(-c2nc(N3CC4CC3C4)c3nc4n(c3n2)CCO[C@@H]4C(F)(F)F)cn1 (single isomer, unassigned) [Example 99]",866
16,"CC1(C)OCCn2c1nc1c(N3CC4CC3C[C@H]4F)nc(-c3cnc(N)nc3)nc12 (single isomer, unassigned) [Example 142]",216
17,CC1(C)OCCn2c1nc1c(N3CCC4(CCCO4)C3)nc(-c3cnc(N)nc3)nc12 (stereo not drawn) [Example 156],1300
18,"COC1CN(c2nc(-c3cnc4[nH]cc(C(F)(F)F)c4c3)nc3c2nc2n3CCOCC2)C1 [Example 131, 4-(3-methoxyazetidin-1-yl)-2-(3-(trifluoromethyl)-1H-pyrrolo[2,3-b]pyridin-5-yl)-6,7,9,10-tetrahydro-[1,4]oxazepino[4,5-e]purine]",60.7
19,"CN(c1nc(-c2cnc(N)nc2)nc2c1nc1n2CCOC1(C)C)C1CCC1 [Example 58, 2-(2-aminopyrimidin-5-yl)-N-cyclobutyl-N,6,6-trimethyl-8,9-dihydro-6H-[1,4]oxazino[4,3-e]purin-4-amine]",87.7
